Reference: patent US6653333B2, “Remedies or preventives for digestive diseases containing diaminotrifluoromethylpyridine derivatives” (Ishihara Sangyo Kaisha, Ltd., priority 2000, dated 2003)

Columns and labels:
[1] = test system: TNBS induced rat Crohn's disease model; test: Trinitrobenzene Sulfonic Acid (TNBS) induced rat Crohn's disease model; type: in vivo; conditions: TNBS rats
Procedure: The therapeutic effect of the compound 1 on TNBS induced rat Crohn's disease model was studied by the following method.
(1) SD male rats (12 weeks old) were anesthetized with Nembutal and their abdomen was opened up, a TNBS solution (TNBS 160 mg/ml ethanol) was administered in 1 ml/kg in the colon located 10 cm below the ileocecum, and their abdomen was closed to prepare models, which were divided into a non-treated group and a group treated with the compound 1, each group consisting of 6 rats. No such a treatment was carried out for normal group rats. After preparation of the models, a drug formulation of the compound 1 of Test Example 1 diluted with distilled water was perorally administered to rats of the group treated with the compound 1 once a day for 7 days in a dosage of 10 mg/kg/day as calculated as anhydride of the compound 1. After completion of administration period, visual change, small intestine weight and mucosal myeloperoxidase activity in small intestine (mucosal MPO activity) were observed or measured. The visual change was evaluated by digitizing and compiling various changes. The ratio of the small intestine weight to the body weight was also calculated from the small intestine weight and the body weight.

[2] = test system: rat sodium dextran sulfate (DSS) induced ulcerative colitis model; test: rat sodium dextran sulfate (DSS) induced ulcerative colitis model; type: in vivo; conditions: DSS rats
Description: As an ulcerative colitis model, trinitrobenzenesulfonic acid (TNB) is usually used, but as a drug effect evaluation system to accomplish the present invention, a rat sodium dextran sulfate (DSS) induced ulcerative colitis model was used. It has been well known that said model is considered as an experimental model similar to human ulcerative colitis from many viewpoints such as inhibision of weight gain, presence or absence of bloody stool, symptoms of e.g. anemia and formation of erosion at the large intestine, and no formation of lesion in the small intestine [FOLIA PHARMACOLOGICA JAPONICA vol. 105, p. 145-152(1995)]. A therapeutic effect of N-(2-ethylsulfonylamino-5-trifluoromethyl-3-pyridyl)cyclohexanecarboxamide sodium salt monohydrate (hereinafter referred to as compound 1) over the test system was examined.
The compound 1 was used as a drug formulation. The formulation composition (content per one vial) was as follows.
A 3% aqueous solution of sodium dextran sulfate (DSS: manufactured by Wako Pure Chemical Industries, Ltd.) was put in a drinking bottle, and rats [Crj: CD(SD), male, Charles River Japan, 7 weeks old when subjected to the test] were made to drink the solution freely for 11 days to cause colitis. After eleven days, rats which satisfied selection standards (among rats which discharged bloody stool continuously for at least two days including the selection day, ones having a weight loss at the selection day of less than 20 g as compared with the weight on the previous day and having a hemoglobin concentration of at least 12 g/dl) were selected, and divided into groups (ten rats/group) so that there would be no difference in the average weight among groups.
With respect to a non-treated group and groups treated with the compound 1, the 3% aqueous solution was changed to a 1% DSS aqueous solution at the day of division, and the rats were made to drink the solution freely for 14 days. Further, to the rats in the groups treated with the compound 1, the compound 1 was perorally administered once a day for 14 days from the day of division by means of a peroral sonde (dosage: 10 ml/kg). To the rats in the non-treated group and a normal group, distilled water for injection (manufactured by Otsuka Pharmaceutical Co., Ltd.) alone was perorally administered similarly. Here, the normal group rats were made to drink distilled water for injection freely instead of the DSS aqueous solution from initiation of the test to the day of anatomy.
A 10 mg/ml aqueous solution of the compound 1 was prepared by using distilled water for injection (manufactured by Otsuka Pharmaceutical Co., Ltd.) and administered to the rats in a desired dosage.
Immediately after collection of blood, the large intestine (colon and rectum) was excised, and its length was measured by means of a ruler in a sufficiently relaxed state.
Immediately after the measurement, a fixing liquid was injected into the intestine, and the intestine was temporarily fixed for at least 1 hour in such a state that the lumen was approximately uniformly expanded. Then, the intestinal canal was dissected along the mesenterium adhered portion, and the intestine was completely fixed in an expanded state in a 10% neutral buffering formalin aqueous solution for at least one week. The intestine was washed with running water for about 5 minutes, and further washed with purified water three times, and then immersed in a 3% aqueous acetic acid solution for about 5 minutes as a pretreatment. Then, the intestine was immersed in a 1% Alcian blue (manufactured by Nacalai Tesque) (dissolved in a 3% aqueous acetic acid solution) and dyed for about 20 minutes, and then washed with a 3% aqueous acetic acid solution from 4 to 5 times until elution of Alcian blue disappeared. […]

CCS(=O)(=O)Nc1ncc(C(F)(F)F)cc1NC(=O)C1CCCCC1.O.[Na] [compound 1, N-(2-ethylsulfonylamino-5-trifluoromethyl-3-pyridyl)cyclohexanecarboxamide sodium salt monohydrate]
Inflammatory reaction and tissue impairment in the small intestine ([1]; 10 mg/kg/day perorally for 7 days): the inflammatory reaction and tissue impairment in the small intestine were decreased | Ratio of small intestine to body weight (Mean) ([1]; 10 mg/kg/day perorally once a day for 7 days, non-treated 0.0065, normal 0.0030): 0.0042 | Small intestine weight (Mean) ([1]; 10 mg/kg/day perorally once a day for 7 days, non-treated 2.18, normal 1.11): 1.63 | Visual score (Mean) ([1]; 10 mg/kg/day perorally once a day for 7 days, non-treated 7.8, normal 1.5): 4.2 | Mucosal MPO activity (Mean) ([1]; 10 mg/kg/day perorally once a day for 7 days, non-treated 8.93, normal 0.48): 0.89 | Erosion suppression rate (large intestine erosion area vs non-treated group) ([2]; 1 mg/kg/day perorally once a day for 14 days): 45% | Erosion suppression rate (large intestine erosion area vs non-treated group) ([2]; 10 mg/kg/day perorally once a day for 14 days): 56% | Erosion suppression rate (large intestine erosion area vs non-treated group) ([2]; 100 mg/kg/day perorally once a day for 14 days): 62% | Anemia as a result of melena due to the erosion ([2]; peroral 14 days): decreases anemia | Histopathological study: inflammation at the submucosa in the erosion formed region ([2]; peroral 14 days): remarkable decrease of inflammation at the submucosa | Histopathological study: mucosal tissue reconstruction ([2]; peroral 14 days): normal tissue reconstruction by regeneration of the mucosa took place | Length of large intestine: intestine wall hyperplasia ([2]; peroral 14 days): decreases intestine wall hyperplasia
